# Experiments:
# [1] = tested on: Chymotrypsin-like activity (β5/β5i); experiment: Proteasome inhibitory activity, subunit-specific cell lysate IC50, chymotrypsin-like activity; assay type: biochemical
# [2] = tested on: APPsw transgenic mouse (Tg2576) and LPS-induced mice (ICR strain); experiment: Morris water maze test in AD mouse models; assay type: in vivo; conditions: FIG. 12A-12D
# Procedure: These two compounds were used to investigate the impacts of LMP2 inhibition on cognitive deficits in two animal models of human Alzheimer's disease (AD). In these AD models, AD develops by Aβ deposition (APPsw transgenic mouse) or lipopolysaccharide (LPS)-induced neuroinflammation. For the APPsw transgenic model, also known as Tg2576, 10-month old APPsw mice were treated i.p. with LMP2 inhibitors twice a week for 3 weeks. […] Once treatments were finished, Morris water maze test was performed. All mice were trained for three times a day for 5 days before the test. The escape latency and distance traveled were recorded on a daily-basis over a 5-day period. […] This supports that the efficacy of LMP2 inhibitors is mediated through LMP2 inhibition. One day after the completion of Morris water maze test, the ability of mouse to maintain memory was evaluated by probe trials. […] Sequentially, a step-through latency test was performed a day after the probe trial. […]
# The learning trials were conducted over 5 days, with 4 trials per day, with three randomized starting points. […] Swimming pattern of each mouse was monitored and recorded by a camera mounted above the center of the pool, and the escape latency, escape distance and swimming speed were assessed by the SMART-LD program (Panlab, Spain). […]
# [3] = tested on: Aβ deposition in APPsw mouse brain; experiment: Aβ in hippocampal tissues by ELISA and Thioflavin T staining; assay type: in vivo; conditions: versus APPsw control, FIG. 9
# Description: Given the data showing improved learning and memory of LMP2 inhibitor-treated mice and the role of Aβ deposition in memory dysfunction, we suspected that LMP2 inhibitors promote Aβ clearance in the brain of APPsw mice. To test this, we measured the expression levels of Aβ in hippocampal tissues isolated from the brains of APPsw mouse, using a ELISA-based assay and Thioflavin T (ThT) staining. […] Taken together, it appears that LMP2 inhibitors exert its anti-AD efficacy in these animal models independent of Aβ deposition. […] As a result, tau protein has become a prominent target for developing disease-modifying drugs. Given this, we wondered whether LMP2 inhibitors could block tau aggregation. To test this, we used HEK293-tau-BiFC cells to monitor the impacts of LMP2 inhibitors on tau aggregation.
# Aβ1-42 levels were determined using specific ELISA Kit (Cusabio Biotech Co., Ltd., Wilmington, Del., USA). Experiments were performed according to each manufacturer's instructions. In brief, samples and standards were added into the pre-coated plate and incubated for 2 hours at 37° C. […] The absorbance was measured at 450 nm using a microplate reader (Sunrise™, TECAN, Switzerland) after adding stop solution.
# Frozen brain tissues were cut into 30 μm sections by using cryostat microtome (Leica CM1850; Leica Microsystems). […] The Thioflavin T staining was examined by using a fluorescence microscope.
# X/β5 = target: T1, X/β5 (Homo sapiens, UniProt P20618+P28074); experiment: Proteasome activity assay, purified 20S proteasome, Ac-WLA-AMC; assay type: biochemical
# T1 construct: purchased R&D Systems
# Procedure: Purified 20S human proteasomes (CP and IP, R&D Systems) were used to assess the in vitro inhibition of proteasome catalytic activity by LMP2 inhibitors. In our 96-well format assays involving a 100 μL total volume, 20S proteasomes (0.5 μg/mL) were incubated with inhibitors or reference compounds (e.g., carfilzomib) in assay buffer (20 mM Tris-HCl, 0.5 mM EDTA, 0.035% SDS) at room temperature for 30 min. Reactions were initiated by the addition of fluorogenic substrates containing the AMC (7-amino-4-methylcoumarin) group. Specifically, the following substrates were used: Suc-LLVY-AMC (CT-L activity, 100 μM), Ac-PAL-AMC (LMP2, 100 μM), Ac-WLA-AMC (β5, 20 μM), Ac-nLPnLD-AMC (β1,100 μM), Ac-RLR-AMC (β2/2i, 20 μM), and Ac-ANW-AMC (β5i, 100 μM). The fluorescence of liberated AMC was measured over a period of 90 min at 360 and 460 nm on a SpectraMax M5 fluorescence plate reader (Molecular Devices). For the proteasome activity of brain tissues isolated from AD mice, tissues were homogenized in RIPA buffer (50 mM Tris Cl, pH 7.4, 150 mM NaCl, 5 mM EDTA, 1% Nonidet P-40, 1% sodium deoxycholate, 0.1% SDS, 1% aprotinin, 50 mM NaF) and sonicated. Samples were centrifuged for 40 min at 14,000×g (4° C.). Protein concentration was determined using the Bradford Assay according to the manufacturer's protocol. […] Fluorescence was recorded for 90 min using a Synergy-HT (Bio Tek) plate reader.
smiles,measurement,setting,value
CC(=O)NCC(=O)N1CCC[C@H]1C(=O)N[C@@H](Cc1ccccc1)C(=O)N[C@@H](CC(C)C)C(=O)[C@@]1(C)CO1 [YU102],IC50,[1],> 10 µM
same,cognitive deficits in the APPsw mice,[2],ameliorates cognitive deficits
same,Aβ deposition,[3],no difference in Aβ deposition
same,IC50,X/β5,> 10 µM

# — US20190161516A1, “PROTEASOME INHIBITORS” (University of Kentucky Research Foundation, priority 2017, published 2019)
